According to publication PMC3637032 (Clinical Pharmacology : Advances and Applications, 2013):
Blank lines part the entries; values can stand above or below the compound they belong to.

Experiments:
[1] = type: in vivo, human
[2] = compound lacks ionizable groups; cited from earlier work
[3] = type: in vivo, human; remark: listed apart in the source
hOCT-2 transporters = conditions: in vitro findings; ref data on file, Bristol-Myers Squibb, Princeton, NJ, USA; cited from earlier work
P-glycoprotein = conditions: apixaban: ref not given; famotidine: ref 20; cited from earlier work
coagulation factor Xa = conditions: cited from earlier work
[4] = tested on: breast cancer resistance protein; conditions: cited from earlier work
[5] = Stability of apixaban in human plasma; type: in vitro ADME; conditions: at −20°C
[6] = cited from earlier work
hOCT-2 = conditions: cited from earlier work
gastric pH = conditions: cited from earlier work
hOCT-1 = conditions: cited from earlier work
[7] = cited from earlier work; remark: listed apart in the source
[8] = tested on: human organic cation transporter (hOCT)-3; conditions: cited from earlier work

SMILES: COc1ccc(-n2nc(C(N)=O)c3c2C(=O)N(c2ccc(N4CCCCC4=O)cc2)CC3)cc1 [Apixaban, 1-(4-methoxyphenyl)-7-oxo-6-(4-(2-oxopiperidin-1-yl)phenyl)-4,5,6,7-tetrahydro-1H-pyrazolo[3,4-c]pyridine-3-carboxamide]
AUC(0-inf) ([1]; both, human, plasma, po, 10 mg): 2220 ng·h/mL
AUC(0-t) ([1]; both, human, plasma, po, 10 mg): 2190 ng·h/mL
Cmax ([1]; both, human, plasma, po, 10 mg): 230 ng/mL
half-life ([1]; both, human, plasma, po, 10 mg): 9.2 h
Predose period 2 apixaban concentration as fraction of Cmax ([1]; six subjects with measurable predose concentrations): < 1.5%
Aqueous solubility dependence on pH [2]: not affected by changes in pH
Deaths, serious adverse events, discontinuations, bleeding-related adverse events ([3]; 18 healthy subjects, both treatment periods): No deaths, serious adverse events, discontinuations due to adverse events, or clinically relevant bleeding-related adverse events
Tolerability ([3]; apixaban 10 mg alone and with famotidine 40 mg, healthy subjects): well tolerated
hOCT-2 substrate (hOCT-2 transporters): not a substrate
P-glycoprotein substrate (P-glycoprotein): substrate
Factor Xa inhibition (description) (coagulation factor Xa): potent, reversible, direct, and highly selective inhibitor
Breast cancer resistance protein substrate [4]: substrate
Stability in human plasma [5]: at least 589 days
Effect of food on apixaban exposure [6]: no relevant effect
Renal excretion as share of total clearance [6]: approximately 27%
Elimination half-life ([6]; clinical studies): approximately 12 hours
Oral bioavailability ([6]; clinical studies): approximately 50%

Effect of coadministration on apixaban Cmax, AUC0–T, or AUC∞ ([1]; famotidine 40 mg 3 hours before apixaban 10 mg, healthy subjects): no effect
SMILES: NC(N)=Nc1nc(CSCCC(N)=NS(N)(=O)=O)cs1 [famotidine]
Inhibition of hOCT-2 (hOCT-2): moderate inhibitor
Time for gastric pH to return to baseline after cessation of administration (gastric pH): 10–12 hours
Time of maximal increases in gastric pH post-dose (gastric pH): 1–3 hours
Inhibition of hOCT-1 (hOCT-1): moderate inhibitor
Metabolism [7]: minimally metabolized
Potential for CYP-mediated drug–drug interactions [7]: minimal potential
Time of maximal plasma concentrations after oral administration [7]: 2 to 3 h
P-glycoprotein substrate (P-glycoprotein): substrate
Inhibition of hOCT-3 [8]: potent inhibitor
